Holding throughout (type): cell-based
One experiment has as its system MCF-7. Nature of the experiment: CellTiter-Glo cell proliferation inhibition, MCF-7 (Effect Example 2). The conditions noted are these: Homo sapiens, MCF7, 144 h, MCF-7 (CTG), 6 days, starting concentration 10 μM; for inhibition at up to 10 µM: read-out: IH % max (maximum inhibition percentage). The text has this: (§1) 1. Cell line • (1) Breast cancer cell lines and their culture media: • MCF-7 (ATCC; Cat. No.: HTB-22), a Luminal A breast cancer cell; • TamR-MCF-7 (ATCC; Cat. No.: CRL-3435), a breast cancer cell; • MCF-7 ER^D538G: a Luminal A breast cancer cell obtained by constructing MCF-7 (ATCC; Cat. No.: HTB-22) using CRISPR-Cas9 gene editing technology; • MCF-7 ER^Y537S: a Luminal A breast cancer cell obtained by constructing MCF-7 (ATCC; Cat. No.: HTB-22) using CRISPR-Cas9 gene editing technology; • MDA-MB-231: (manufacturer: Nanjing CoBioer Biosciences Co., Ltd.), a triple-negative breast cancer cell; • MDA-MB-468: (manufacturer: Nanjing CoBioer Biosciences Co., Ltd.), a triple-negative breast cancer cell.
(§2) Herein, the culture medium of MCF-7, TamR-MCF-7, MCF-7 ER^D538G, and MCF-7 ER^Y537S was EMEM; • the culture medium of MDA-MB-231 and MDA-MB-468 was DMEM.
(§3) 2. Reagents • Culture medium EMEM (Gibco, 1964507) • Culture medium DMEM (Gibco, 12430-054) • Fetal bovine serum (Gibco, 10091148) • Penicillin-streptomycin double antibody (Gibco, S110JV) • DPBS (Gibco, 14190-144) • CellTiter-Glo® assay kit (Promega, G7573) • Trypsin (0.25%) (Gibco, 25200-056) • DMSO (Sigma, D2650)
(§4) 3. Instruments • Biosafety cabinet (AIRTECH, BSC-1300A II) • Automated cell counter (Life Technologies, countess II) • Multifunctional microplate reader (Biotek, H1FM) • Orbital shaker (Hangzhou Allsheng Instruments Co., Ltd., OS-100) • XLFIT 5.3 (Inforstack Shanghai Co., Ltd.)
(§5) For this test method, the following experiments were performed in a biosafety cabinet, with the specific steps as follows: • (1) Cells were inoculated in a 96-well plate. One day later, the previous culture medium was poured off, 5 mL of DPBS was added to wash the cells, and then DPBS was pipetted and discarded. An appropriate amount of trypsin was then added. The plate was digested in a 37° C., 5% CO2 cell incubator for about 2 to 5 minutes and then taken out. Anew corresponding culture medium was added, and pipetted up and down to resuspend the cells evenly. The cells were then counted using an automated cell counter. • (2) Each cell was inoculated in columns 1 to 11 of a 96-well plate (Corning, Cat. No.: 3610) at a density of 1,000 or 2,000 cells per well in 100 μL of culture medium, and 100 μL of the corresponding culture medium without cells was added to the wells in column 12. The plate was then placed in a 37° C., 5% CO2 incubator for 24 hours. • (3) The compound of the present disclosure and the control drug fulvestrant (Selleck; Cat. No.: S1191) were then 4-fold serially diluted to 10 dose points starting at 10 μM. 10 μL of the serially diluted compound was pipetted and added to 100 μL of cells in columns 1 to 10, and 10 μL of the corresponding culture medium containing 0.33 v % DMSO was added to both columns 11 and 12. The plate was incubated in a 37° C., 5% CO2 incubator for 6 days or 72 hours (Note: column 11 was used as a MAX well with cells but without compound; column 12 was used as a MIN well without cells […]). • (4) The cell viability detection reagent in the CellTiter-Glo® assay kit was then added to the 96-well plate at 50 μL per well according to the instructions, and shaken on an orbital shaker in the dark for 5 to 10 minutes. The cell viability was then measured using a multifunctional microplate reader. Finally, the inhibition of cell proliferation by the compound of the present disclosure was plotted by XLFIT software, and the IC50 value (half inhibitory concentration) and the IH % max (maximum inhibition percentage) of the compound of the present disclosure were calculated.

A further experiment deals with MDA-MB-468. Nature of the experiment: CellTiter-Glo cell proliferation inhibition, MDA-MB-468. The conditions noted are these: Homo sapiens, 144 h, MDA-MB-468 (CTG), 6 days, starting concentration 10 μM; for inhibition at up to 10 µM: read-out: IH % max (maximum inhibition percentage).
From the text: as §1, §2, §3, §4, §5
Compounds D64 to D69 were tested for MDA-MB-231 (CTG) and MDA-MB-468 (CTG) with an incubation time of 72 hours in the incubator.
For orientation: In ATP-based viability assays light output follows the ATP content of the culture.

For the next experiment, the system named is MCF-7 ER^D538G. Briefly: CellTiter-Glo cell proliferation inhibition, MCF-7 ER^D538G. The conditions noted are these: Homo sapiens, MCF7, 144 h; MCF-7 ER^D538G (CTG), 6 days, starting concentration 10 μM; read-out: IH % max (maximum inhibition percentage).
From the text: as §1, §2, §3, §4, §5

On to `CS(=O)(=O)c1ccc(-c2ccc3cc(O)ccc3c2Oc2ccc(OCCOCCOCCOCCNc3cccc4c3CN(C3CCC(=O)NC3=O)C4=O)cc2)cc1` (stereo not shown) [Compound D20, 3-(4-((2-(2-(2-(2-(4-((6-hydroxy-2-(4-(methylsulfonyl)phenyl)naphthalen-1-yl)oxy)phenoxy)ethoxy)ethoxy)ethoxy)ethyl)amino)-1-oxoisoindolin-2-yl)piperidine-2,6-dione], for which the inhibition (commonly the change of the read-out against control, counted positive when it falls) at up to 10 µM with MCF-7 stood at 38%.
As to `CCN(CCOCCN1CCN(c2ccc3c(c2)C(=O)N(C2CCC(=O)NC2=O)C3)CC1)CCOc1ccc(Oc2c(-c3ccc(S(C)(=O)=O)cc3)ccc3cc(O)ccc23)cc1` (stereo not shown) [Compound D51], in the experiment on MCF-7, it took 143 nM to reach half-maximal inhibition (IC50) and the inhibition at up to 10 µM came to 52.9%.
For the compound `CS(=O)(=O)c1ccc(-c2ccc3cc(O)ccc3c2Oc2ccc(OCCCCN3CCN(c4ccc5c(c4)C(=O)N(C4CCC(=O)NC4=O)C5=O)CC3)cc2)cc1` (stereo not shown) [Compound D13, 2-(2,6-dioxopiperidin-3-yl)-5-(4-(4-(4-((6-hydroxy-2-(4-(methylsulfonyl)phenyl)naphthalen-1-yl)oxy)phenoxy)butyl)piperazin-1-yl)isoindoline-1,3-dione], the inhibition at up to 10 µM with MCF-7 amounted to 34%.
For the compound `COc1ccc2c(Oc3ccc(OCCN4CCN(c5ccc6c(c5)CN(C5CCC(=O)NC5=O)C6=O)CC4)cc3)c(-c3ccc(S(C)(=O)=O)cc3)ccc2c1` (stereo not shown) [Compound D3, 3-(5-(4-(2-(4-((6-methoxy-2-(4-(methylsulfonyl)phenyl)naphthalen-1-yl)oxy)phenoxy)ethyl)piperazin-1-yl)-1-oxoisoindolin-2-yl)piperidine-2,6-dione], the inhibition at up to 10 µM with MCF-7 was found to be 30%. Besides, in the experiment on MDA-MB-468, the IC50 (as a rule, the concentration that inhibits the measured activity by half) was 18.6 nM and the inhibition at up to 10 µM came to 73%.
`CS(=O)(=O)c1ccc(-c2ccc3cc(O)ccc3c2Oc2ccc(OCCN3CCN(c4cccc5c4CN(C4CCC(=O)NC4=O)C5=O)CC3)cc2)cc1` (stereo not shown) [Compound D53, 3-(4-(4-(2-(4-((6-hydroxy-2-(4-(methylsulfonyl)phenyl)naphthalen-1-yl)oxy)phenoxy)ethyl)piperazin-1-yl)-1-oxoisoindolin-2-yl)piperidine-2,6-dione]: the figures for the inhibition at up to 10 µM in the experiment on MCF-7 and in the experiment on MDA-MB-468 were 49.7% and 99.2%, respectively.
Regarding `CS(=O)(=O)c1ccc(-c2ccc3cc(O)ccc3c2Oc2ccc(OCCOCCOCCOCCNc3ccc4c(c3)C(=O)N(C3CCC(=O)NC3=O)C4)cc2)cc1` (stereo not shown) [Compound D29], the inhibition at up to 10 µM in the experiment with MCF-7 and in the experiment with MCF-7 ER^D538G was 47% in each case.
On to `CCN(CCOCCOCCOCCNc1ccc2c(c1)C(=O)N(C1CCC(=O)NC1=O)C2=O)CCOc1ccc(Oc2c(-c3ccc(S(C)(=O)=O)cc3)ccc3cc(O)ccc23)cc1` (stereo not shown) [Compound D62, 2-(2,6-dioxopiperidin-3-yl)-5-((3-ethyl-1-(4-((6-hydroxy-2-(4-(methylsulfonyl)phenyl)naphthalen-1-yl)oxy)phenoxy)-6,9,12-trioxa-3-azatetradecan-14-yl)amino)isoindoline-1,3-dione], for which the inhibition at up to 10 µM amounted to 45.1% with MCF-7 and 98.5% in the experiment on MDA-MB-468.
`CCN(CCOCC(=O)N1CCN(c2ccc3c(c2)C(=O)N(C2CCC(=O)NC2=O)C3)CC1)CCOc1ccc(Oc2c(-c3ccc(S(C)(=O)=O)cc3)ccc3cc(O)ccc23)cc1` (stereo not shown) [Compound D50]: the inhibition at up to 10 µM in the experiment with MCF-7 came out at 48.4%.
For `CCN(CCOCCOCC(=O)N1CCN(c2ccc3c(c2)C(=O)N(C2CCC(=O)NC2=O)C3)CC1)CCOc1ccc(Oc2c(-c3ccc(S(C)(=O)=O)cc3)ccc3cc(O)ccc23)cc1` (stereo not shown) [Compound D44], the inhibition at up to 10 µM in the experiment with MCF-7 came out at 33%; in the experiment on MCF-7 ER^D538G, 52%.
Consider `CCN(CCOc1ccc(Oc2c(-c3ccc(S(C)(=O)=O)cc3)ccc3cc(O)ccc23)cc1)CCN1CCN(c2ccc3c(c2)C(=O)N(C2CCC(=O)NC2=O)C3)CC1` (stereo not shown) [Compound D56], for which the inhibition at up to 10 µM in the experiment with MCF-7 was 55.6%.
For `CS(=O)(=O)c1ccc(-c2ccc3cc(O)ccc3c2Oc2ccc(OCCOCCOCCN3CCN(c4cccc5c4CN(C4CCC(=O)NC4=O)C5=O)CC3)cc2)cc1` (stereo not shown) [Compound D37, 3-(4-(4-(2-(2-(2-(4-((6-hydroxy-2-(4-(methylsulfonyl)phenyl)naphthalen-1-yl)oxy)phenoxy)ethoxy)ethoxy)ethyl)piperazin-1-yl)-1-oxoisoindolin-2-yl)piperidine-2,6-dione], the inhibition at up to 10 µM with MCF-7 worked out at 49%; in the experiment with MCF-7 ER^D538G, 52%.
Consider `CCN(CCCCCCCCCc1ccc2c(c1)C(=O)N(C1CCC(=O)NC1=O)C2=O)CCOc1ccc(Oc2c(-c3ccc(S(C)(=O)=O)cc3)ccc3cc(O)ccc23)cc1` (stereo not shown) [Compound D63, 2-(2,6-dioxopiperidin-3-yl)-5-(9-(ethyl(2-(4-((6-hydroxy-2-(4-(methylsulfonyl)phenyl)naphthalen-1-yl)oxy)phenoxy)ethyl)amino)nonyl)isoindoline-1,3-dione], for which, in the experiment on MCF-7, it took 153 nM to reach half-maximal inhibition (IC50) and the inhibition at up to 10 µM was determined as 98.9%.
In the same order, the values of `CS(=O)(=O)c1ccc(-c2ccc3cc(O)ccc3c2Oc2ccc(OCC(=O)N3CCN(c4ccc5c(c4)CN(C4CCC(=O)NC4=O)C5=O)CC3)cc2)cc1` (stereo not shown) [Compound D54, 3-(5-(4-(2-(4-((6-hydroxy-2-(4-(methylsulfonyl)phenyl)naphthalen-1-yl)oxy)phenoxy)acetyl)piperazin-1-yl)-1-oxoisoindolin-2-yl)piperidine-2,6-dione] are 13.2 nM and 96.5%.
Regarding `COc1ccc2c(Oc3ccc(OCCCCN4CCN(c5ccc6c(c5)CN(C5CCC(=O)NC5=O)C6=O)CC4)cc3)c(-c3ccc(S(C)(=O)=O)cc3)ccc2c1` (stereo not shown) [Compound D58, 3-(5-(4-(4-(4-((6-methoxy-2-(4-(methylsulfonyl)phenyl)naphthalen-1-yl)oxy)phenoxy)butyl)piperazin-1-yl)-1-oxoisoindolin-2-yl)piperidine-2,6-dione], the inhibition at up to 10 µM in the experiment with MCF-7 was found to be 39%.
For the compound `CS(=O)(=O)c1ccc(-c2ccc3cc(O)ccc3c2Oc2ccc(OCCOCCN3CCN(c4ccc5c(c4)C(=O)N(C4CCC(=O)NC4=O)C5)CC3)cc2)cc1` (stereo not shown) [Compound D43, 3-(6-(4-(2-(2-(4-((6-hydroxy-2-(4-(methylsulfonyl)phenyl)naphthalen-1-yl)oxy)phenoxy)ethoxy)ethyl)piperazin-1-yl)-1-oxoisoindolin-2-yl)piperidine-2,6-dione], the inhibition at up to 10 µM in the experiment on MCF-7 and in the experiment with MCF-7 ER^D538G was 36% each time.
On to `CCN(CCOCCOCC(=O)N1CCN(c2ccc3c(c2)CN(C2CCC(=O)NC2=O)C3=O)CC1)CCOc1ccc(Oc2c(-c3ccc(S(C)(=O)=O)cc3)ccc3cc(O)ccc23)cc1` (stereo not shown) [Compound D46], for which the inhibition at up to 10 µM in the experiment on MCF-7 worked out at 34%; in the experiment with MCF-7 ER^D538G it was 46%.

Source of the values: patent US20240131168A1, “NAPHTHALENE RING-CONTAINING COMPOUND, PHARMACEUTICAL COMPOSITION CONTAINING SAME, AND USE THEREOF” (JIANGSU YAHONG MEDITECH CO., LTD., priority 2021, published 2024).
